Experimental data published in BindingDB's records for PubMed 38943600 (China Pharmaceutical University).
*1 amine or outer side, *2 acyl side, *3 side chain or, on linkers, in order; H or OH if unused. Where a SMILES comes first, the peptide text is derived from it. The star is where a group is joined. ξ: configuration not given here. X6 = Nc1ccn(C2OC(COC(=O)CCCCCN3C(=O)CC(*)C3=O)C(O)C2(F)F)c(=O)n1; C18 diacid = O=C(O)CCCCCCCCCCCCCCCCC(=O)*; ξγGlu = O=C(O)C(CCC(=O)[*:2])N[*:1]; AEEA = NCCOCCOCC(=O)O

Target: Inactive tyrosine-protein kinase transmembrane receptor ROR1 (Homo sapiens, UniProt Q01973)
Assay: Binding affinity to N-terminal His/GST-tagged recombinant human ROR1 (453 to 783 residues) extracted from baculovirus infected insect cells assessed as dissociation constant by SPR analysis

Chain of Inactive tyrosine-protein kinase transmembrane receptor ROR1 (Q01973 whole entry, the tested form may be a part): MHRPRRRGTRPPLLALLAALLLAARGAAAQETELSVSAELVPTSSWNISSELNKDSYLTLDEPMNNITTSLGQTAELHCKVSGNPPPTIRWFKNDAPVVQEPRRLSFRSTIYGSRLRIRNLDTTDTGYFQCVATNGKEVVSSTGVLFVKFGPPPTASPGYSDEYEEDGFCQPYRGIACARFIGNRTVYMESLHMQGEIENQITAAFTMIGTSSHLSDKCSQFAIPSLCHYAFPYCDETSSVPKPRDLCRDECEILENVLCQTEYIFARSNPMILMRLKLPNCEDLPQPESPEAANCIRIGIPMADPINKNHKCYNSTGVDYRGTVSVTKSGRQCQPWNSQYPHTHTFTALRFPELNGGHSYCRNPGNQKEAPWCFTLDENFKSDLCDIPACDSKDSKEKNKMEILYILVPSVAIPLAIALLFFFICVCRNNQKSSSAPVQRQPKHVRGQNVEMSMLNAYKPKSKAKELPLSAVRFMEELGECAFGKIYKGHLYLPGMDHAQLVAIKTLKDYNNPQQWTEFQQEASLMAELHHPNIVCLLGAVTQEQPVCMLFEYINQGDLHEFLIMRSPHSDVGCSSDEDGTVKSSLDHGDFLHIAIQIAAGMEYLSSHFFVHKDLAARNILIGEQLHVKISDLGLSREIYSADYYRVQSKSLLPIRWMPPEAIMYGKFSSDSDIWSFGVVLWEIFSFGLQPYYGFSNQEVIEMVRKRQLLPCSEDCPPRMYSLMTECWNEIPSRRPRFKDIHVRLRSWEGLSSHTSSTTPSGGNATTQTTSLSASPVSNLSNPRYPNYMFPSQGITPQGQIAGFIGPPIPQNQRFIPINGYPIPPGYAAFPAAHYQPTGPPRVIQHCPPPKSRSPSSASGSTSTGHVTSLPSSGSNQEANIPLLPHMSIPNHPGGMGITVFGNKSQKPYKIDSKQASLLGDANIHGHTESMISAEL

## CC[C@H](C)[C@H](NC(=O)[C@H](CC(=O)O)NC(=O)[C@H](CO)NC(=O)CNC(=O)[C@H](CSC1CC(=O)N(CCCCCC(=O)OCC2OC(n3ccc(N)nc3=O)C(F)(F)C2O)C1=O)NC(=O)CNC(=O)[C@H](CCCCN)NC(=O)COCCOCCNC(=O)COCCOCCNC(=O)CCC(NC(=O)CCCCCCCCCCCCCCCCC(=O)O)C(=O)O)C(=O)N[C@@H](CC(N)=O)C(=O)N[C@@H](CC(=O)O)C(=O)N[C@@H](CCCNC(=N)N)C(=O)N[C@@H](CCC(N)=O)C(=O)N[C@H](C(=O)N1CCC[C@H]1C(=O)NCC(=O)N[C@@H](Cc1ccc(O)cc1)C(=O)N[C@@H](CO)C(=O)N[C@H](C(=O)N[C@@H](Cc1ccc(O)cc1)C(=O)N[C@@H](Cc1c[nH]c2ccccc12)C(=O)NCC(=O)N[C@@H](CC(=O)O)C(=O)N[C@@H](Cc1ccccc1)C(N)=O)[C@@H](C)O)[C@@H](C)CC (stereo partly specified) ({C18 diacid-ξγGlu-AEEA-AEEA}-KGC(X6)GSDINDRQIPGYSTYWGDF-NH2)
  Kd: 1.2 nM
